Data reported in patent US6642227B2, “Inhibitors of c-Jun N-terminal kinases (JNK) and other protein kinases” (Vertex Pharmaceuticals Incorporated, priority 2001, dated 2003).

Molecular target: T1, activated JNK3 (Homo sapiens, UniProt P53779)
T1 construct: One such construct encodes amino acid residues Ser40-Glu402 of JNK3α1 and is preceded by Met and Gly residues; Met-Gly dipeptide (initiator Met plus Gly added for the NcoI site) (N); made in house; host or cells: E. coli BL21 (DE3)
Assay: JNK inhibition assay (spectrophotometric coupled-enzyme assay)
Assay type: biochemical
Details: activated JNK3 10 nM, 10 μM ATP, 30° C.; read-out: JNK3 Activity (Ki class A-C)
From the text: A BLAST search of the EST database using the published JNK3α1 cDNA as a query identified an EST clone (#632588) that contained the entire coding sequence for human JNK3α1. Polymerase chain reactions (PCR) using pfu polymerase (Strategene) were used to introduce restriction sites into the cDNA for cloning into the pET-15B expression vector at the NcoI and BamHI sites. The protein was expressed in E. coli. Due to the poor solubility of the expressed full-length protein (Met 1-Gln 422), an N-terminally truncated protein starting at Ser residue at position 40 (Ser 40) was produced. This truncation corresponds to Ser 2 of JNK1 and JNK2 proteins, and is preceded by a methionine (initiation) and a glycine residue. The glycine residue was added in order to introduce an NcoI site for cloning into the expression vector. In addition, systematic C-terminal truncations were performed by PCR to identify a construct that give rise to diffraction-quality crystals. One such construct encodes amino acid residues Ser40-Glu402 of JNK3α1 and is preceded by Met and Gly residues.
The construct was prepared by PCR using deoxyoligonucleotides: 5′ […] 3′ (forward primer with initiation codon underlined)(SEQ ID NO:1) and 5′ […] 3′ (reverse primer with stop codon underlined)(SEQ ID NO:2) as primers and was confirmed by DNA sequencing.
E.coli strain BL21 (DE3) (Novagen) was transformed with the JNK3 expression construct and grown at 30° C. in LB supplemented with 100 μg/ml carbenicillin in shaker flasks until the cells were in log phase (OD600˜0.8). Isopropylthio-β-D-[…] (IPTG) was added to a final concentration of 0.8 mM and the cells were harvested 2 hours later by centrifugation.
E. coli cell paste containing JNK3 was resuspended in 10 volumes/g lysis buffer (50 mM HEPES, pH 7.2, containing 10% glycerol (v/v), 100 mM NaCl, 2 mM DTT, 0.1 mM PMSF, 2 μg/ml Pepstatin, lug/ml each of E-64 and Leupeptin). Cells were lysed on ice using a microfluidizer and centrifuged at 100,000×g for 30 min at 4° C. The 100,000×g supernatant was diluted 1:5 with Buffer A (20 mM HEPES, pH 7.0, 10% glycerol (v/v), 2 mM DTT) and purified by SP-Sepharose (Pharmacia) cation-exchange chromatography (column dimensions: 2.6×20 cm) at 4° C. The resin was washed with 5 column volumes of Buffer A, followed by 5 column volumes of Buffer A containing 50 mM NaCl. Bound JNK3 was eluted with a 7.5 column volume linear gradient of 50-300 mM NaCl. JNK3 eluted between 150-200 mM NaCl.
Five mg of JNK3 was diluted to 0.5 mg/ml in 50 mM HEPES buffer, pH 7.5, containing 100 mM NaCl, 5 mM DTT, 20 mM MgCl2 and 1 mM ATP. GST-MKK7(DD) was added at a molar ratio of 1:2.5 GST-MKK7:JNK3. After incubation for 30 minutes at 25° C., the reaction mixture was concentrated 5-fold by ultrafiltration in a Centriprep-30 (Amicon, Beverly, Mass.), diluted to 10 ml and an additional 1 mM ATP added. This procedure was repeated three times to remove ADP and replenish ATP. The final addition of ATP was 5 mM and the mixture incubated overnight at 4° C.
The activated JNK3/GST-MKK7(DD) reaction mixture was exchanged into 50 mM HEPES buffer, pH 7.5, containing 5 mM DTT and 5% glycerol (w/v) by dialysis or ultrafiltration. The reaction mixture was adjusted to 1.1 M potassium phosphate, pH 7.5, and purified by hydrophobic interaction chromatography (at 25° C.) using a Rainin Hydropore column. […] Activated JNK3 (i.e. doubly phosphorylated JNK3) was stored at −70° C. at 0.25-1 mg/ml.
Compounds were assayed for the inhibition of JNK3 by a spectrophotometric coupled-enzyme assay. In this assay, a fixed concentration of activated JNK3 (10 nM) was incubated with various concentrations of a potential inhibitor dissolved in DMSO for 10 minutes at 30° C. in a buffer containing 0.1 M HEPES buffer, pH 7.5, containing 10 mM MgCl2, 2.5 mM phosphoenolpyruvate, 200 μM NADH, 150 μg/mL pyruvate kinase, 50 μg/mL lactate dehydrogenase, and 200 μM EGF receptor peptide. […]

T1 sequence (P53779 40-402): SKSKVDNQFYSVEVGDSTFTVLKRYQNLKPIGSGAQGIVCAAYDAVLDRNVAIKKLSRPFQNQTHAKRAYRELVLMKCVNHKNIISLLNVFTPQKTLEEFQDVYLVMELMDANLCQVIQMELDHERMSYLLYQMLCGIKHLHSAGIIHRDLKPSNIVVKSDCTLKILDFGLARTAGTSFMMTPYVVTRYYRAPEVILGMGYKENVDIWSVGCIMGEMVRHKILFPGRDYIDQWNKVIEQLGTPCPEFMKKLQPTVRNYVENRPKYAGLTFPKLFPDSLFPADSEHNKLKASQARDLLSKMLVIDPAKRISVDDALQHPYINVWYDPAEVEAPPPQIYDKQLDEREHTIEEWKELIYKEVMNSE

Row | Ki [µM] | SMILES
1 | < 0.1 | CCOc1sc(-c2ccnc(Nc3ccccc3)n2)c(-c2ccc(C)cc2)c1C#N [IIa-15, 2-Ethoxy-5-(2-phenylamino-pyrimidin-4-yl)-4-p-tolyl-thiophene-3-carbonitrile]
2 | < 0.1 | CCOc1sc(-c2ccnc(Nc3ccccc3)n2)c(-c2ccc(Cl)cc2)c1C#N [IIa-11, 2-Ethoxy-5-(2-phenylamino-pyrimidin-4-yl)-4-(4-chloro-phenyl)-thiophene-3-carbonitrile]
3 | < 0.1 | CSc1sc(-c2ccnc(Nc3ccccc3)n2)c(-c2ccc(C)cc2)c1C#N [IIa-14, 2-Methylsulfanyl-5-(2-phenylamino-pyrimidin-4-yl)-4-p-tolyl-thiophene-3-carbonitrile]
4 | < 0.1 | CSc1sc(-c2ccnc(Nc3ccccc3)n2)c(-c2ccc(Cl)cc2)c1C#N [IIa-10, 2-Methylsulfanyl-5-(2-phenylamino-pyrimidin-4-yl)-4-(4-chloro-phenyl)-thiophene-3-carbonitrile]
